{"source": "patent US20250108119A1", "about": "“NOVEL STEROID PAYLOADS, STEROID LINKERS, ADCs CONTAINING AND USE THEREOF” (IMMUNEXT, INC., priority 2021, published 2025)", "key": {"[1]": {"tested_on": "LPS stimulated human PBMCs", "assay": "LPS stimulated human PBMC, IL-1β and IL-6 ELISA", "assay_type": "cell-based", "settings": "for inhibition of IL-1β and IL-6 production: Experiment 5: free payload 1000-0.5 nM; for inhibition of IL-1β and IL-6 production / inhibition of IL-1β production: 24 hr", "protocol": "The potency of novel steroids was assessed in a model of LPS stimulated human peripheral blood mononuclear cells (PBMCS). Stimulated PBMCs in this assay produce multiple pro-inflammatory cytokines1.\nIn all the following experiments, human PBMC, isolated from 1-2 healthy donors per study, were stimulated with LPS to induce cytokine production.\nLPS was added either immediately after addition of free payload, or in the case of conjugates, four hours after addition of the conjugate.\nCells were plated in flat bottom 96 well plates at a final concentration of 150,000 cells/well, with technical duplicates for each condition.\nTest agents were serially diluted in the assay media and added to a final concentration of 1,000 nM-1 nM or 0.2 nM depending on the assay or as a no treatment control.\nLPS stimulation was added to a final concentration of 1 ng/ml.\nHuman IL-1β and IL-6 ELISA kits were used on supernatants according to vendor protocols. All graphs were prepared with GraphPad (Prism)."}, "human PBMC": {"tested_on": "human PBMC", "assay": "Cytokine production (IL-1β, IL-6) at 24 hr by human PBMC incubated with 1 ng/mL LPS", "assay_type": "cell-based", "settings": "for inhibition of IL-1β production / inhibition of IL-6 production: free steroid payloads, serial dilutions, 1 ng/mL LPS, 24 hr", "protocol": "(§1) FIG. 51: INX-SM-3, INX-SM-4, and INX-SM-1 inhibit IL-1β (left) and IL-6 (right) production. Cytokine levels were measured at 24 hr for human PBMCS incubated with 1 ng/mL LPS and serial dilutions (1000-1 nM) of steroid payloads, with the no treatment control plotted on the log-scale x-axis at <1 nM; n=1 donor, standard deviation plotted from technical duplicates.\nas §1, with “52: INX-SM-1,” for “51:”, “INX-SM-4” for “INX-SM-4,”, “INX-SM-6” for “INX-SM-1”, “IL-1β” for “IL-1β (left) and IL-6 (right)”, “levels” for “levels were”, “ng/ml” for “ng/mL”\n(§2) FIG. 53: INX-SM-9, INX-SM-31 and INX-SM-35 inhibit IL-1β (top) and IL-6 (bottom) production. Cytokine levels measured at 24 hr for human PBMCS incubated with 1 ng/mL LPS and serial dilutions (1000-0.2 nM) of steroid payloads, with the no treatment control plotted on the log-scale x-axis at <0.2 nM; n=2 donors-representative donor shown. Standard deviation plotted from technical duplicates.\nas §2, with “54: INX-SM-32 inhibits” for “53: INX-SM-9, INX-SM-31 and INX-SM-35 inhibit”, “(500-1” for “(1000-0.2”, “<1” for “<0.2”, “n=2. Representative” for “n=2 donors-representative”\nCytokine levels measured at 24 hr for human PBMCS incubated with 1 ng/ml LPS and serial dilutions (1000-0.5 nM) of steroid payloads, with the no treatment control plotted on the log-scale x-axis at <0.5 nM; n=1 donor, standard deviation plotted from technical duplicates.\nFIG. 56: INX-SM-2 and INX-SM-7 show inhibition in IL-1β. Average Cytokine levels measured at 24 hr for human PBMCS incubated with 1 ng/ml LPS and serial dilutions (1000-0.16 nM) of steroid payloads, with the no treatment control plotted on the log-scale x-axis at <0.16 nM; n=1, standard deviation plotted from technical duplicates. […]\nAverage cytokine levels measured at 24 hr for human PBMC incubated with 1 ng/ml LPS and serial dilutions (100-0.032 nM) of glucocorticoid payloads; n=1, mean of technical duplicates.\nAverage cytokine levels measured at 24 hr for human PBMC incubated with 1 ng/mL LPS and serial dilutions (1000-0.32 nM) of glucocorticoid payloads; n=1, mean of technical duplicates.\nCytokine levels measured at 24 hr for human PBMC incubated with 1 ng/mL LPS and serial dilutions (1000-0.5 nM) of steroid payloads, with the no treatment control plotted on the log-scale x-axis at <0.5 nM; n=1 donor, mean of technical duplicates plotted.\nAverage cytokine levels for A. hull-1β B. huIL-6 measured at 24 hr for human PBMC incubated with 1 ng/mL LPS and serial dilutions (1000-0.16 nM) of conjugated steroid linker payloads, with the no treatment control plotted on the log-scale x-axis at <0.16 nM; n=1, standard deviation plotted from technical duplicates. Values above the ULOQ (12,500 pg/mL for IL-1b and 150,000 pg/mL for IL-6) were plotted as the extrapolated value.\nAverage cytokine levels for IL-1β measured at 24 hr for human PBMC incubated with 1 ng/mL LPS and serial dilutions (1000-0.16 nM) of conjugated steroid linker payloads, with the no treatment control plotted on the log-scale x-axis at <0.16 nM; n=1, mean plotted of technical duplicates\nAverage cytokine levels for IL-1β measured at 24 hr for human PBMC incubated with 1 ng/mL LPS and serial dilutions (1000-0.16 nM) of conjugated steroid linker payloads, with the no treatment control plotted on the log-scale x-axis at <0.16 nM; n=1, mean plotted of technical duplicates.\nFIG. 66: Analogs of INX V are potent relative to INX231J. […]"}, "[2]": {"settings": "Experiment 6: free payload 1000-0.16 nM"}}, "data": [{"compound": "C[C@]12C=CC(=O)C=C1CC[C@@H]1[C@@H]2[C@@H](O)C[C@@]2(C)[C@H]1C[C@H]1O[C@@H](c3ccc(CC45CCC(N)(CC4)CC5)cc3)O[C@]12C(=O)CO", "note": "[INX-SM-10, (6aR,6bS,7S,8aS,8bS,11aR,12aS,12bS)-10-(4-((4-aminobicyclo[2.2.2]octan-1-yl)methyl)phenyl)-7-hydroxy-8b-(2-hydroxyacetyl)-6a,8a-dimethyl-1,2,6a,6b,7,8,8a,8b,11a,12,12a,12b-dodecahydro-4H-naphtho[2′,1′:4,5]indeno[1,2-d][1,3]dioxol-4-one]", "values": [{"measurement": "inhibition of IL-1β and IL-6 production", "setting": "[1]", "value": "robust inhibition in IL-1β (top) and IL-6 (bottom) production"}, {"measurement": "inhibition of IL-1β production", "setting": "human PBMC", "value": "robust inhibition"}, {"measurement": "inhibition of IL-6 production", "setting": "human PBMC", "value": "robust inhibition"}]}, {"compound": "C[C@]12C=CC(=O)C=C1CC[C@@H]1[C@@H]2[C@@H](O)C[C@@]2(C)[C@H]1C[C@H]1O[C@@H](c3cnc(Cc4cccc(N)c4)s3)O[C@]12C(=O)CO", "note": "[INX-SM-6]", "values": [{"measurement": "inhibition of IL-1β production", "setting": "[1]; Experiment 2: free payload 1000-1 nM, n=1 donor", "value": "show inhibition in IL-1β production"}, {"measurement": "inhibition of IL-1β production", "setting": "human PBMC", "value": "inhibit"}]}, {"compound": "CNC1CC(Cc2ccc([C@@H]3O[C@@H]4C[C@H]5[C@@H]6CCC7=CC(=O)C=C[C@]7(C)[C@H]6[C@@H](O)C[C@]5(C)[C@]4(C(=O)CO)O3)cc2)C1", "note": "(stereo partly drawn) [INX-SM-49, (6aR,6bS,7S,8aS,8bS,10R,11aR,12aS,12bS)-7-hydroxy-8b-(2-hydroxyacetyl)-6a,8a-dimethyl-10-(4-((3-(methylamino)cyclobutyl)methyl)phenyl)-1,2,6a,6b,7,8,8a,8b,11a,12,12a,12b-dodecahydro-4H-naphtho[2′,1′:4,5]indeno[1,2-d][1,3]dioxol-4-one]", "values": [{"measurement": "inhibition of IL-1β and IL-6", "setting": "[1]; Experiment 12: free payloads 1000-0.15 nM", "value": "weakly inhibit IL-1β and IL-6"}, {"measurement": "inhibition of IL-1β production", "setting": "human PBMC", "value": "weakly inhibit"}, {"measurement": "inhibition of IL-6 production", "setting": "human PBMC", "value": "weakly inhibit"}]}, {"compound": "C[C@]12C=CC(=O)C=C1[C@@H](F)C[C@H]1[C@@H]3C[C@H]4O[C@@H](c5ccc(CC6CC7(C6)CC(NC(=O)[C@H](CCC(=O)O)NC(=O)CNC(=O)CBr)C7)cc5)O[C@@]4(C(=O)CO)[C@@]3(C)C[C@H](O)[C@@]12F", "note": "(stereo partly drawn) [INX A23, (S)-4-(2-(2-bromoacetamido)acetamido)-5-((6-(4-((2S,6aS,6bR,7S,8aS,8bS,10R,11aR,12aS,12bS)-2,6b-difluoro-7-hydroxy-8b-(2-hydroxyacetyl)-6a,8a-dimethyl-4-oxo-2,4,6a,6b,7,8,8a,8b,11a,12,12a,12b-dodecahydro-1H-naphtho[2′,1′:4,5]indeno[1,2-d][1,3]dioxol-10-yl)benzyl)spiro[3.3]heptan-2-yl)amino)-5-oxopentanoic acid]", "values": [{"measurement": "potency of conjugated linker payloads over INX J (conclusions)", "setting": "[1]", "value": "enhanced potency"}, {"measurement": "potency in reducing IL-1β production", "setting": "human PBMC; anti-VISTA conjugates, serial dilutions with respect to total ADC concentration (20-0.003 μg/mL), equivalent or reduced DAR", "value": "enhanced potency"}]}, {"compound": "C[C@]12C=CC(=O)C=C1CC[C@@H]1[C@@H]2[C@@H](O)C[C@@]2(C)[C@H]1C[C@H]1O[C@@H](c3ccc(OC4CC5(CC(N)C5)C4)cc3F)O[C@]12C(=O)CO", "note": "(stereo partly drawn) [INX-SM-44, (6aR,6bS,7S,8aS,8bS,10R,11aR,12aS,12bS)-10-(4-((6-aminospiro[3.3]heptan-2-yl)oxy)-2-fluorophenyl)-7-hydroxy-8b-(2-hydroxyacetyl)-6a,8a-dimethyl-1,2,6a,6b,7,8,8a,8b,11a,12,12a,12b-dodecahydro-4H-naphtho[2′,1′:4,5]indeno[1,2-d][1,3]dioxol-4-one]", "values": [{"measurement": "inhibition of huIL1-β", "setting": "[1]; Experiment 7: free payload, INX-SM-43 100-0.032 nM, INX-SM-44 1000-0.32 nM", "value": "moderate inhibition of huIL1-β"}, {"measurement": "inhibition of IL-1β production", "setting": "human PBMC", "value": "moderate inhibition"}]}, {"compound": "C[C@]12C=CC(=O)C=C1CC[C@@H]1[C@@H]2[C@@H](O)C[C@@]2(C)[C@H]1C[C@H]1O[C@@H](c3ccc(CC4(N)COC4)cc3)O[C@]12C(=O)CO", "note": "[INX-SM-33, (6aR,6bS,7S,8aS,8bS,10R,11aR,12aS,12bS)-10-(4-((3-aminooxetan-3-yl)methyl)phenyl)-7-hydroxy-8b-(2-hydroxyacetyl)-6a,8a-dimethyl-1,2,6a,6b,7,8,8a,8b,11a,12,12a,12b-dodeca hydro-4H-naphtho[2′,1′:4,5]indeno[1,2-d][1,3]dioxol-4-one]", "values": [{"measurement": "potency of free payloads (conclusions)", "setting": "[1]", "value": "lowest potency among the R stereoisomers of the series"}, {"measurement": "inhibition of IL-1β and IL-6 production", "setting": "[1]", "value": "modest inhibition of cytokine production"}, {"measurement": "inhibition of IL-1β production", "setting": "human PBMC", "value": "modest inhibition"}, {"measurement": "inhibition of IL-6 production", "setting": "human PBMC", "value": "modest inhibition"}]}, {"compound": "C[C@]12C=CC(=O)C=C1CC[C@H]1[C@@H]3C[C@H]4O[C@@H](c5ccc(CC67CC(N)(C6)C7)cc5)O[C@@]4(C(=O)CO)[C@@]3(C)C[C@H](O)[C@@]12F", "note": "[INX-SM-13, (6aS,6bR,7S,8aS,8bS,10R,11aR,12aS,12bS)-10-(4-((3-aminobicyclo[1.1.1]pentan-1-yl)methyl)phenyl)-6b-fluoro-7-hydroxy-8b-(2-hydroxyacetyl)-6a,8a-dimethyl-1,2,6a,6b,7,8,8a,8b,11a,12,12a,12b-dodecahydro-4H-naphtho[2′,1′:4,5]indeno[1,2-d][1,3]dioxol-4-one]", "values": [{"measurement": "inhibition of IL-1β production", "setting": "[1]; [2]", "value": "did not lead to increased potency over the non-fluorinated payload"}]}, {"compound": "C[C@]12C=CC(=O)C=C1[C@@H](F)C[C@H]1[C@@H]3C[C@H]4O[C@@H](c5ccc(CC6CC7(C6)CC(NC(=O)[C@H](CCC(=O)O)NC(=O)CNC(=O)CBr)C7)cc5)O[C@@]4(C(=O)COP(=O)(O)O)[C@@]3(C)C[C@H](O)[C@@]12F", "note": "(stereo partly drawn) [INX A12, (S)-4-(2-(2-bromoacetamido)acetamido)-5-((6-(4-((2S,6aS,6bR,7S,8aS,8bS,10R,11aR,12aS,12bS)-2,6b-difluoro-7-hydroxy-6a,8a-dimethyl-4-oxo-8b-(2-(phosphonooxy)acetyl)-2,4,6a,6b,7,8,8a,8b,11a,12,12a,12b-dodecahydro-1H-naphtho[2′,1′:4,5]indeno[1,2-d][1,3]dioxol-10-yl)benzyl)spiro[3.3]heptan-2-yl)amino)-5-oxopentanoic acid]", "values": [{"measurement": "potency of conjugated linker payloads over INX J (conclusions)", "setting": "[1]", "value": "enhanced potency"}]}, {"compound": "C[C@]12C=CC(=O)C=C1[C@@H](F)C[C@H]1[C@@H]3C[C@H]4O[C@@H](c5ccc(CC67CC(N)(C6)C7)cc5)O[C@@]4(C(=O)CO)[C@@]3(C)C[C@H](O)[C@@]12F", "note": "[INX-SM-24, (2S,6aS,6bR,7S,8aS,8bS,10R,11aR,12aS,12bS)-10-(4-((3-aminobicyclo[1.1.1]pentan-1-yl)methyl)phenyl)-2,6b-difluoro-7-hydroxy-8b-(2-hydroxyacetyl)-6a,8a-dimethyl-1,2,6a,6b,7,8,8a,8b,11a,12,12a,12b-dodecahydro-4H-naphtho[2′,1′:4,5]indeno[1,2-d][1,3]dioxol-4-one]", "values": [{"measurement": "inhibition of IL-1β production", "setting": "[1]; [2]", "value": "increased potency over the non-fluorinated INX-SM-3"}]}]}
